ChEMBL document CHEMBL4828717, “Synthetic cajaninstilbene acid derivatives eradicate methicillin-resistant Staphylococcus aureus persisters and biofilms” (Eur J Med Chem, 2021)
Active and inactive are the calls of the source. No cut-off for these calls is given here.

What was measured:
Cell membrane [1] = assay: Induction of cell membrane damage in methicillin resistant Staphylococcus aureus ATCC 43300 assessed as increase in ATP leakage […] at 0.5 times MIC measured every 30 mins for 6 hrs by Bactiter-glo assay; type: subcellular
Escherichia coli = assay: Antibacterial activity against Escherichia coli ATCC25922 assessed as reduction in microbial growth after 16 to 18 hrs by microbroth dilution method; type: functional; settings: ATCC 25922, time 16-18 hrs
Staphylococcus aureus [2] = assay: Antibacterial activity against methicillin resistant Staphylococcus aureus ATCC49008 assessed as reduction in microbial growth after 16 to 18 hrs by microbroth dilution method; type: functional; settings: time 16-18 hrs
Staphylococcus aureus [3] = assay: Synergistic antimicrobial activity against Staphylococcus aureus ATCC 43300 assessed as FICI at 2 times MIC after 24 hrs in presence of 4 ug/ml gentamicin by checkerboard assay; type: functional
Cell membrane [4] = assay: Induction of cell membrane damage in Staphylococcus aureus ATCC 43300 at 0.5 times MIC after 90 mins by confocal laser scanning microscopy analysis; type: subcellular
Staphylococcus aureus [5] = assay: Synergistic antimicrobial activity against Staphylococcus aureus ATCC 43300 assessed as FICI at 0.25 times MIC after 24 hrs in presence of 128 ug/ml piperacillin by checkerboard assay; type: functional
Staphylococcus aureus [6] = assay: Antibacterial activity against methicillin resistant Staphylococcus aureus ATCC49025 assessed as reduction in microbial growth after 16 to 18 hrs by microbroth dilution method; type: functional; settings: time 16-18 hrs
Staphylococcus aureus [7] = assay: Antibacterial activity against methicillin resistant Staphylococcus aureus ATCC48706 assessed as reduction in microbial growth after 16 to 18 hrs by microbroth dilution method; type: functional; settings: time 16-18 hrs
Staphylococcus aureus [8] = assay: Synergistic antimicrobial activity against Staphylococcus aureus ATCC 43300 assessed as FICI at 1 times MIC after 24 hrs in presence of 8 ug/ml gentamicin by checkerboard assay; type: functional
Cell membrane [9] = assay: Induction of cell membrane damage in Staphylococcus aureus ATCC 43300 at 1 times MIC after 90 mins by confocal laser scanning microscopy analysis
Staphylococcus aureus [10] = assay: Antibacterial activity against methicillin resistant Staphylococcus aureus ATCC515992 assessed as reduction in microbial growth after 16 to 18 hrs by microbroth dilution method; type: functional; settings: time 16-18 hrs
Staphylococcus aureus [11] = assay: Antibacterial activity against methicillin resistant Staphylococcus aureus ATCC 52056 assessed as reduction in microbial growth after 16 to 18 hrs by microbroth dilution method; type: functional; settings: time 16-18 hrs
Staphylococcus aureus [12] = assay: Antibacterial activity against Staphylococcus aureus ATCC 25923 assessed as reduction in microbial growth after 16 to 18 hrs by microbroth dilution method; type: functional; settings: time 16-18 hrs
Cell membrane [13] = assay: Induction of cell membrane damage in methicillin resistant Staphylococcus aureus ATCC 43300 assessed as increase in nucleic acid leakage by measuring increase in absorbance at 260 nm at 0.5 to 2 times MIC measured every 30 mins for 6 hrs by spectrophotometry; type: subcellular
Cell membrane [14] = assay: Induction of cell membrane damage in methicillin resistant Staphylococcus aureus ATCC 43300 assessed as increase in ATP leakage […] at 1 times MIC measured every 30 mins for 6 hrs by Bactiter-glo assay
Staphylococcus aureus [15] = assay: Synergistic antimicrobial activity against Staphylococcus aureus ATCC 43300 assessed as FICI at 0.5 times MIC after 24 hrs in presence of 16 ug/ml gentamicin by checkerboard assay; type: functional
[16] = Toxicity in BALB/c mouse infected with methicillin-resistant Staphylococcus aureus ATCC 43300 assessed as damage in heart at 50 to 200 mg/kg, sc administered every 24 hrs for 4 days by H&E staining based light microscopic analysis; type: organism-based; settings: in vivo, dose 50-200 mg/kg
Cell membrane [17] = assay: Induction of cell membrane permeabilization in methicillin resistant Staphylococcus aureus ATCC 43300 assessed as fluorescence intensity at 0.5 to 2 times of MIC measured after 30 mins by propidium iodide staining based fluorescence assay; type: subcellular
Staphylococcus aureus [18] = assay: Antibacterial activity against methicillin resistant Staphylococcus aureus ATCC 62202 assessed as reduction in microbial growth after 16 to 18 hrs by microbroth dilution method; type: functional; settings: time 16-18 hrs
[19] = Toxicity in BALB/c mouse infected with methicillin-resistant Staphylococcus aureus ATCC 43300 assessed as damage in lung at 50 to 200 mg/kg, sc administered every 24 hrs for 4 days by H&E staining based light microscopic analysis; type: organism-based; settings: in vivo, dose 50-200 mg/kg
Staphylococcus aureus [20] = assay: Antibacterial activity against methicillin resistant Staphylococcus aureus ATCC 43300 persisters assessed as reduction in colony formation at 8 ug/ml incubated for 8 hrs by colony counting method; type: functional, organism-based; settings: dose 8.0 µg/ml
Staphylococcus aureus [21] = assay: Antibacterial activity against methicillin resistant Staphylococcus aureus ATCC48966 assessed as reduction in microbial growth after 16 to 18 hrs by microbroth dilution method; type: functional; settings: time 16-18 hrs
Cell membrane [22] = assay: Induction of cell membrane depolarization in methicillin resistant Staphylococcus aureus ATCC 43300 measured up to 60 mins by DiOC5 dye based flow analyzer; settings: time min <=60, TDE = time-dependent effect
Staphylococcus aureus [23] = assay: Synergistic antimicrobial activity against Staphylococcus aureus ATCC 43300 assessed as FICI at 1 times MIC after 24 hrs in presence of 128 ug/ml kanamycin by checkerboard assay; type: functional
Pseudomonas aeruginosa = assay: Antibacterial activity against Pseudomonas aeruginosa ATCC27853 assessed as reduction in microbial growth after 16 to 18 hrs by microbroth dilution method; type: functional; settings: time 16-18 hrs
Staphylococcus aureus [24] = assay: Antibacterial activity against methicillin resistant Staphylococcus aureus ATCC 43300 assessed as reduction in microbial growth after 16 to 18 hrs by microbroth dilution method; type: functional; settings: time 16-18 hrs
Staphylococcus aureus [25] = assay: Antibacterial activity against methicillin resistant Staphylococcus aureus ATCC48073 assessed as reduction in microbial growth after 16 to 18 hrs by microbroth dilution method; type: functional; settings: time 16-18 hrs
Staphylococcus aureus [26] = assay: Synergistic antimicrobial activity against Staphylococcus aureus ATCC 43300 assessed as FICI at 2 times MIC after 24 hrs in presence of 64 ug/ml kanamycin by checkerboard assay; type: functional
Staphylococcus aureus [27] = assay: Inhibition of biofilm formation in methicillin-resistant Staphylococcus aureus ATCC 43300 at 1 times MIC incubated for 24 hrs by crystal violet staining based microplate reader assay; type: functional
Staphylococcus aureus [28] = assay: Antimicrobial activity against methicillin-resistant Staphylococcus aureus ATCC 43300 infected in abscesses mouse model assessed as increase in mouse survival at 50 to 200 mg/kg, sc administered every 24 hrs for 4 days; type: functional, organism-based; settings: dose 50-200 mg/kg
Cell membrane [29] = assay: Induction of cell membrane depolarization in methicillin resistant Staphylococcus aureus ATCC 43300 measured after 60 mins by DiOC5 dye based flow analyzer
[30] = Cytotoxicity against mouse RAW264.7 cells assessed as cell viability at 10 ug/ml measured after 24 hrs by MTT assay; type: cell-based; settings: RAW264.7 cells, at 10 µg/mL, read-out: Activity
L02 = assay: Cytotoxicity against human L02 cells assessed as cell viability at 10 ug/ml measured after 24 hrs by MTT assay; type: cell-based; settings: l02, 24 h, dose 10 µg/ml
Staphylococcus aureus [31] = assay: Induction of morphological changes in Staphylococcus aureus ATCC 43300 assessed as membrane damage at 8 times MIC after 90 mins by TEM analysis; type: functional, organism-based

## CC(C)=CCc1c(OCCF)cc(/C=C/c2ccc(F)cc2)c(C(=O)O)c1O
Cell membrane [1]
  Activity: Active
Escherichia coli
  MIC: > 32 µg/mL
Staphylococcus aureus [2]
  MIC: 4 µg/mL
Staphylococcus aureus [3]
  fractional inhibitory concentration index (FICI): 0.75
Cell membrane [4]
  Activity: Active
Staphylococcus aureus [5]
  fractional inhibitory concentration index (FICI): 0.3125
Staphylococcus aureus [6]
  MIC: 4 µg/mL
Staphylococcus aureus [7]
  MIC: 4 µg/mL
Staphylococcus aureus [8]
  fractional inhibitory concentration index (FICI): 0.75
Cell membrane [9]
  Activity: Active
Staphylococcus aureus [10]
  MIC: 4 µg/mL
Staphylococcus aureus [11]
  MIC: 4 µg/mL
Staphylococcus aureus [12]
  MIC: 2 µg/mL
Cell membrane [13]
  Activity: Active
Cell membrane [14]
  Activity: Active
Staphylococcus aureus [15]
  fractional inhibitory concentration index (FICI): 1.125
[16]
  Activity: Non-Toxic
Cell membrane [17]
  Activity: Dose-Dependent Effect
Staphylococcus aureus [18]
  MIC: 4 µg/mL
[19]
  Activity: Non-Toxic
Staphylococcus aureus [20]
  Activity: Active
Staphylococcus aureus [21]
  MIC: 4 µg/mL
Cell membrane [22]
  Activity: Tde
Staphylococcus aureus [23]
  fractional inhibitory concentration index (FICI): 0.75
Pseudomonas aeruginosa
  MIC: > 32 µg/mL
Staphylococcus aureus [24]
  MIC: 4 µg/mL
Staphylococcus aureus [25]
  MIC: 4 µg/mL
Staphylococcus aureus [26]
  fractional inhibitory concentration index (FICI): 1
Staphylococcus aureus [27]
  inhibition (INH): 50%
Staphylococcus aureus [28]
  Activity: Active
Cell membrane [29]
  Activity: Dose-Dependent Effect
[30]
  viability at 24 h, 10 ug/ml: > 60%
L02
  Activity: Toxic
Staphylococcus aureus [31]
  Activity: Active
